Assay results published in US7772225B2, “N-sulfamoyl-piperidineamides for the treatment or inhibition of obesity and related conditions” (Solvay Pharmaceuticals GmbH, priority 2005, dated 2010).

What was measured:
C57B1/6 mice = experiment: Acute in vivo food intake test in mice; conditions: 24 h food intake, 100 mg/kg/day oral gavage in two half doses, high caloric diet, male or female mice
Protocol: 2. Acute In Vivo Food Intake Test in Mice
The studies were carried out in male or female C57B1/6 mice (n=8-12 per group). The mice were kept on an inverted 12/12h light/dark cycle (lights on 22:00). They were allowed food (high caloric diet) and water ad libitum. Food intake and water consumption was measured daily. The test compound of Formula I was suspended in 1% methylcellulose in water and 2% (v/v) of Poloxamer 188 (Lutrol F68®) and administered by oral gavage at a dose of 100 mg/kg/day. One half of the dose was administered at 7.00-9.00 h; the remaining half of the dose was administered between 15.00-15.30 h.
In the test model described above, the test substances caused a decrease of the animals' 24 h food intake to the percentages of food intake when compared to control as given in the following Table 2.

[1] = biological target: T1, human carbonic anhydrase isoenzyme II (hCA II) (Homo sapiens, UniProt P00918); experiment: In vitro inhibition of human carbonic anhydrase isoenzyme II (hCA II), dansylamide fluorescence; format: binding; conditions: hCA II from erythrocytes 10^-7 M/L, read at 60 min 37° C., single measurements, read-out: IC50 (hCA II inhibiting effect in vitro)
T1 construct: human carbonic anhydrase isoenzyme II from erythrocytes (Sigma-Aldrich); purchased Sigma-Aldrich; host or cells: human erythrocytes (natural source)
Protocol: 1. In Vitro Inhibition of Human Carbonic Anhydrase Isoenzyme II (hCA II)
The test compounds of Formula I in 96 well microplates were diluted with aqua bidest by using an automatic pipettor (CyBiWell®). From the different dilution plates, aliquots of 20 μl were transferred to the 96 well black assay plates with a pipetting station (Tecan Genesis®). In a second step, 148 μl of potassium phosphate buffer (20 mM, pH 7.4) was added, and as a third step, 20 μl of enzyme solution (1 μM human carbonic anhydrase isoenzyme II from erythrocytes (Sigma-Aldrich), dissolved in potassium phosphate buffer) incubated for 60 min at room temperature and the fluorescence signal (Tecan Ultra® fluorescence reader; excitation wavelength: 280 nm; emission wavelength: 465 nm) read at the end of the preincubation period (FLU-1). After the preincubation time, 20 μl of aqueous dansylamide solution (1 mM dansylamide (Sigma-Aldrich), dissolved in hydrochloric acid) were added and the fluorescence signal read every 10 min for a period of 60 min at 37° C. For calculation, the fluorescence data of the time point 60 min (FLU-2) were used. The total volume of assay mixture amounted to 208 μl. The final concentration of carbonic anhydrase II was 10^−7 M/L, of dansylamide 2.25×10^−6 and of compounds from 10^−8 M/L up to 10^−5 M/L. Final concentration of DMSO as compound solvent was 0.1 mM. […]

| SMILES | IC50 [1] [µM] | further results |
| --- | --- | --- |
| NS(=O)(=O)N1CCC(N(C(=O)Nc2ccc(C(F)(F)F)cc2)c2cccnc2)CC1 | – | melting point: 188 to 191 °C |
| NS(=O)(=O)N1CCC(NC(=O)Nc2ccc(F)cc2)CC1 [Example 1, 4-{[[(4fluorophenyl)amino]-carbonyl]amino}piperidine-1-sulfonamide] | – | food intake [% of control] (C57B1/6 mice): 83 % of control |
| NS(=O)(=O)N1CCC(n2c(=O)[nH]c3ccccc32)CC1 [Example 10] | 7.3 | – |
| NS(=O)(=O)N1CCC(N(Cc2ccccc2)C(=O)Nc2ccccc2)CC1 [Example 28] | 6.6 | – |
